Three compounds from US20250032439A1, “NOVEL COMPOSITIONS” (DSM IP ASSETS B.V., priority 2021, published 2025) can be followed below.

T1 sequence (P41595 whole entry): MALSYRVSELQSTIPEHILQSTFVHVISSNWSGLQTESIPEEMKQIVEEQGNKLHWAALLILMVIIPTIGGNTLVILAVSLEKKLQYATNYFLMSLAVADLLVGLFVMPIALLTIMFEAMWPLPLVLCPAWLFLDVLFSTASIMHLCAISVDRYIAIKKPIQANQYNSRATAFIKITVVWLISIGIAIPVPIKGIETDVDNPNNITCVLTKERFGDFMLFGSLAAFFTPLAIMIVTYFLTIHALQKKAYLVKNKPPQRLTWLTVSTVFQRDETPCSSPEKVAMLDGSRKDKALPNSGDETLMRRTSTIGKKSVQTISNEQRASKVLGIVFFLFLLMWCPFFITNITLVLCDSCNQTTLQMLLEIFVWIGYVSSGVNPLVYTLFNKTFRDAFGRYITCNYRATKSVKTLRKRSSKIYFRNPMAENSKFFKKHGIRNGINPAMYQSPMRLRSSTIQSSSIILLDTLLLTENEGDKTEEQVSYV

The experiment concerns the target T1, human 5-HT2B receptor (Homo sapiens, UniProt P41595).
T1 construct: expressed in transfected cells; host or cells: CHO cells
Briefly: Antagonism of human serotonin 5-HT2B, IP1 functional assay (HTRF) in transfected CHO cells. In kind it is cell-based. As to conditions: inhibition of IP1 production induced by 30 nM 5-HT. The procedure:
The human 5-HT2B receptor expressed in transfected CHO cells is used to determine antagonistic effects by measuring the effects on agonist-induced inositol monophosphate (IP1) production using the HTRF® detection method (Porter et al., 1999, Brit. J. Pharmacol., 128: 13-20; Trinquet et al., 2006, Analytical Biochemistry 358, 126-135) The CHO cells can be suspended in a buffer containing 10 mM Hepes/NaOH (pH 7.4), 4.2 mM KCl, 146 mM NaCl, 1 mM CaCl2, 0.5 mM MgCl2, 5.5 mM glucose and 50 mM LiCl, then distributed in microtiter plates at a density of about 20000 cells/well and preincubated for 5 min at room temperature in the presence of buffer (basal control), test compound, i.e. reference samples and inventive mixture of retinyl acetate (“retAc”) (see Table 1) or a very potent known reference antagonist SB-206553. Thereafter, the reference agonist 5-HT (serotonin) is added at a final concentration of 30 nM. […] Following 30 min incubation at 37° C., the cells are lysed and the fluorescence acceptor (D2-labeled IP1) and fluorescence donor (anti-IP1 antibody labeled with europium cryptate) are added. After 60 min at room temperature, the fluorescence transfer is measured at wavelengths Ex=337 nm and Em=620 and 665 nm using a microplate reader (Envision, Perkin Elmer). The IP1 concentration can be determined by dividing the signal measured at 665 nm by that measured at 620 nm (ratio). The results are expressed as a percent inhibition of the control response to 30 nM 5-HT. Mean values, standard deviation are calculated and used in a dose response model to calculate the IC50 values.
The standard reference antagonist SB-206553 is tested in each experiment at several concentrations to generate a concentration-response curve. The dose response curve is used to calculate the IC50 value. The same procedure is done for RetAc mix and the Reference RetAc to determine the IC50 values.
In general terms: In TR-FRET formats the signal depends on donor and acceptor labels being close together.
Usually IC50 stands for the concentration that inhibits the measured activity by half. With `CC(=O)OC/C=C(C)/C=C/C=C(C)/C=C/C1=C(C)CCCC1(C)C` [Reference retAc, retinyl acetate], 12 µM corresponded to half-maximal inhibition (IC50).
The result for `CC(=O)OC/C=C(C)/C=C/C=C(C)/C=C/C1=C(C)CCCC1(C)C` [RetAc mix, retinyl acetate] reads 5.2 µM; that for `Cn1ccc2cc3c(cc21)CCN3C(=O)Nc1cccnc1` [SB-206553], 0.026 µM.
